Active and inactive are the calls of the source. No cut-off for these calls is given here.
Tests used:
[1] = Anticoagulant activity in human […] assessed as concentration required to double activated partial […] time; format: functional
Prothrombin = Prothrombin (Homo sapiens, UniProt P00734); assay: Inhibition of thrombin
[2] = Fraction unbound in human plasma; format: ADME, cell-free
Rattus norvegicus = assay: Anticoagulant activity in iv dosed ferric chloride-induced thrombosis rat model assessed as protection against thrombotic occlusion; format: functional, organism-based
[3] = Inhibition of trypsin
[4] = Half life in dog at 1 mg/kg, po; format: ADME, organism-based, Canis lupus familiaris; design: dose 1 mg/kg, route oral; conditions: in vivo
[5] = Cmax in rat at 10 mg/kg, po; format: ADME, organism-based; design: dose 10 mg/kg, route oral; conditions: in vivo
[6] = Cmax in dog at 1 mg/kg, po; format: ADME, organism-based, Canis lupus familiaris; design: dose 1 mg/kg, route oral; conditions: in vivo
[7] = Half life in rat at 10 mg/kg, po; format: ADME, organism-based; design: dose 10 mg/kg, route oral; conditions: in vivo

Cc1cnc(NCCc2ccccn2)c(=O)n1CC(=O)NCc1cc(Cl)ccc1OCC(=O)NC1CC1
Activity [1]: 0.45 µM | Ki (Prothrombin): 0.015 nM | fraction unbound [2]: 0.01

Cc1cnc(NCCc2ccccn2)c(=O)n1CC(=O)NCc1cc(Cl)ccc1OCC(=O)NC1CCCNC1 (centres undefined)
Activity (Rattus norvegicus): Active | Activity [1]: 0.24 µM | Ki (Prothrombin): 0.125 nM | fraction unbound [2]: 0.12

O=C(Cn1c(Cl)cnc(NCCc2cccc[n+]2[O-])c1=O)NCc1cc(Cl)ccc1Cl
Ki [3]: 138 µM | Activity [1]: 0.65 µM | Ki (Prothrombin): 0.76 nM

COc1ccc(C#N)c(CNC(=O)Cn2c(C)cnc(NCCC3CCCCN3)c2=O)c1 (racemic)
Activity (Rattus norvegicus): Active | Ki [3]: 136 µM | Activity [1]: 0.27 µM | Ki (Prothrombin): 1.8 nM

COc1ccc(C#N)c(CNC(=O)Cn2c(Cl)cnc(NCCc3cccc[n+]3[O-])c2=O)c1
Ki [3]: 278 µM | Activity [1]: 0.41 µM | Ki (Prothrombin): 1.1 nM

COc1ccc(Cl)cc1CNC(=O)Cn1c(C)cnc(NCCC2CCCCN2)c1=O (racemic)
Activity (Rattus norvegicus): Active | Ki [3]: 58.9 µM | Activity [1]: 0.65 µM | Ki (Prothrombin): 4.8 nM

NC(C(=O)N1CCC[C@H]1C(=O)NCc1cc(Cl)ccc1OCC(=O)NC1CC1)C1CCCCC1 (single isomer, unassigned)
Activity [1]: 0.42 µM | fraction unbound [2]: 0.12

Cc1ccc(OCC(F)(F)F)c(CNC(=O)Cn2c(C)cnc(NCCc3ccccn3)c2=O)c1
Ki [3]: 91 µM | Activity [1]: 0.89 µM | Ki (Prothrombin): 1.5 nM

O=C(Cn1c(Cl)cnc(NCCc2cccc[n+]2[O-])c1=O)NCc1cc(Cl)ccc1OCC(F)(F)F
Ki [3]: 17 µM | Activity [1]: 0.6 µM | Ki (Prothrombin): 0.31 nM

COc1ccc(C#N)c(CNC(=O)Cn2c(C)cnc(NCCc3ccccn3)c2=O)c1
Ki [3]: > 1000 µM | half-life [4]: 1.47 h | Activity [1]: 0.72 µM | Ki (Prothrombin): 1.6 nM | Cmax [5]: 2280 nM | Cmax [6]: 2260 nM | half-life [7]: 2.08 h

Cc1ccc(C#N)c(CNC(=O)Cn2c(C)cnc(NCCc3ccccn3)c2=O)c1
Ki [3]: 102 µM | half-life [4]: 0.85 h | Activity [1]: 0.56 µM | Ki (Prothrombin): 1.3 nM | Cmax [6]: 2300 nM

COc1ccc(Cl)cc1CNC(=O)Cn1c(C)cnc(NCCc2ccccn2)c1=O
Ki [3]: 161 µM | half-life [4]: 1 h | Activity [1]: 1.05 µM | Ki (Prothrombin): 2 nM | Cmax [5]: 570 nM | Cmax [6]: 1480 nM | half-life [7]: 3.73 h

Cc1ccc(Cl)cc1CNC(=O)Cn1c(Cl)cnc(NCCc2cccc[n+]2[O-])c1=O
Ki [3]: 94 µM | Activity [1]: 0.69 µM | Ki (Prothrombin): 1.1 nM

COc1ccc(C)cc1CNC(=O)Cn1c(C)cnc(NCCc2ccccn2)c1=O
Ki [3]: 902 µM | Activity [1]: 2.9 µM | Ki (Prothrombin): 8 nM

Cc1cnc(NCCc2ccccn2)c(=O)n1CC(=O)NCc1cc(Cl)ccc1OCC(F)(F)F
Ki [3]: 32 µM | half-life [4]: 1.3 h | Activity [1]: 0.79 µM | Ki (Prothrombin): 0.5 nM | Cmax [5]: 1060 nM | Cmax [6]: 3240 nM | half-life [7]: 1.95 h

Cc1cnc(NCCc2ccccn2)c(=O)n1CC(=O)NCc1cccc(Cl)c1
Ki [3]: 37 µM | half-life [4]: 0.867 h | Activity [1]: 1.01 µM | Ki (Prothrombin): 3 nM | Cmax [5]: 2980 nM | Cmax [6]: 2820 nM | half-life [7]: 1 h | fraction unbound [2]: 0.06

Cc1cnc(NCCc2ccccn2)c(=O)n1CC(=O)NCc1cc(Cl)ccc1Cl
Ki [3]: 52 µM | Activity [1]: 0.98 µM | Ki (Prothrombin): 0.75 nM

Cc1ccc(Cl)cc1CNC(=O)Cn1c(C)cnc(NCCc2ccccn2)c1=O
Ki [3]: > 50 µM | half-life [4]: 1.18 h | Activity [1]: 0.87 µM | Ki (Prothrombin): 1.1 nM | Cmax [5]: 1290 nM | Cmax [6]: 2520 nM | half-life [7]: 3.67 h

COc1ccc(Cl)cc1CNC(=O)Cn1c(Cl)cnc(NCCc2cccc[n+]2[O-])c1=O
Ki [3]: 64 µM | Activity [1]: 0.67 µM | Ki (Prothrombin): 1.8 nM

COc1ccc(C#N)c(CNC(=O)Cn2c(Cl)cnc(NCCc3ccccn3)c2=O)c1
Ki [3]: > 100 µM | Activity [1]: 0.83 µM | Ki (Prothrombin): 1.5 nM

Cc1ccc(Cl)cc1CNC(=O)Cn1c(C)cnc(NCCC2CCCCN2)c1=O (racemic)
Activity (Rattus norvegicus): Active | Ki [3]: 38 µM | Activity [1]: 0.44 µM | Ki (Prothrombin): 2.3 nM
